{"source": "patent US20150158931A1", "about": "“CYSTEINE PROTEASE CAPTURING AGENTS” (Stichting Het Nederlands Kanker Instituut, priority 2012, published 2015)", "key": {"[1]": {"tested_on": "SENPs (GST-SENP1, SENP6, SENP7)", "test": "Labeling of SENPs with SUMO-PRG peptides (SDS-PAGE, fluorescence)", "type": "binding, human", "conditions": "for selective capturing / binding of SENPs: SENPs 1 μM, peptides 50 μM, 1 hour at RT; for binding to SENPs denatured prior to addition of the peptides: hydrolases denatured (1x LB, 5 min boiling) before peptide", "description": "The following experiment was performed to confirm that propargyl modified SUMO peptide (fragments) in accordance with the invention are selective capturing agent for the corresponding SENPs. The following SUMO peptides and SENPs were used in the Experiment. • SUMO peptides: • SUMO1=Cy5-PEG4-YQEQTG-PRG • SUMO2,3=Cy5-PEG4-FQQQTG-PRG • SENPs: • GST-SENP1 (43 kDa) • SENP6 (33.1 kDa) • SENP7 (37.2 kDa)\nThe SENPs (1 μM final concentration) were incubated with the SUMO-PRG peptides (50 μM final concentrations) for 1 hour at RT in buffer (20 mM Tris, 100 mM NaCl, 1 mM DTT, pH 7.5). Samples were denatured using 1× LB and boiled for 5 min. As a control, the SENPs were denatured (1×LB and 5 min. boiling) prior to treatment with the SUMO-PRG peptides. Samples were resolved by SDS-PAGE (12% polyacryl amide, MES buffer) and proteins were visualized by fluorescence (λex,em=625,680 nm) and CBB staining."}, "DUBs in cell lysates": {"tested_on": "DUBs in cell lysates", "test": "Labeling of active DUBs in cell lysates at endogenous levels with fluorescent probe", "type": "binding", "conditions": "fluorescence"}, "[2]": {"tested_on": "GFP-DUB fusions (catalytic cysteine to serine mutants)", "test": "Labeling of overexpressed GFP-DUB fusions in cell lysates", "type": "binding", "conditions": "transfected cells, lysate", "description": "For overexpression of GFP-tagged DUBs in cells, wild type USP14, Otub1, Otub2, Otud1 and POH1 were subcloned from pDEST-cDNA constructs (Addgene) into the eGFP-C1 vector system (Clontech) at XhoI/EcoRI restriction sites. Mutagenesis of catalytic Cysteines was performed by standard protocols (Stratagene) using the following primers (sites of mutagenesis underlined): USP14-C114S forward-CTTGGTAACACTTCTTACATGAATGCC, reverse-GGCATTCATGTAAGAAGTGTTACCAAG; Otub1-C9/S forward-CCTGACGGCAACTCTTTCTATCGGGC, reverse-GC CCGATAGAAAGAGTTGCCGTCAGG; Otub2-C51S forward-GG GATGGGAACTCCTTCTACAGGGCC, reverse-GGCCCTGTAGAAGGAGTTCCCATCCC. […] Reactions were stopped by the addition sample loading buffer supplemented with (β-mercaptoethanol, followed by boiling for 10 min. Samples were resolved on 4-12% MOPS NU-PAGE Gels (Invitrogen) and probe reactivity was assessed by TAMRA fluorescence scanning as described above. Gels were then transferred onto Nitrocellulose membranes and immunoblotted using anti-GFP serum produced in rabbit and mouse anti-β-actin (Sigma-Aldrich). Immunoblots were visualized using a Licor Odyssey. The following fluorescent secondary antibodies purchased from LICOR were used: anti-mouse-680, anti-rabbit-800."}, "UCH-L3 [3]": {"molecular_target": "T1, UCH-L3 (Homo sapiens, UniProt P15374)", "T1 construct": "made in house", "T1 sequence (P15374 1-230)": "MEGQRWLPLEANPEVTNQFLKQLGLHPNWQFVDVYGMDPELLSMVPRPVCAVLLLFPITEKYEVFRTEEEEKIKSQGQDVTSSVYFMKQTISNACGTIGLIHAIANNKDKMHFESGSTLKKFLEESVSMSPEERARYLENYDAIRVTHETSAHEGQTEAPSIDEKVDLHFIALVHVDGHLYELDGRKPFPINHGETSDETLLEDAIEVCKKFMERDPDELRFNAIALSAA", "test": "Reaction between Ubiquitin75-propargylamide and UCH-L3 (LC-MS, SDS-PAGE)", "type": "binding", "description": "Recombinant UCH-L3 was expressed and purified as described previously (C. N. Larsen, J. S. Price, K. D. Wilkinson, Biochemistry 35, 6735 (1996)).\n(§1) General procedure: DUB was dissolved in PBS with 5 mM dithiothreitol to a concentration of 1 mg/mL."}, "cysteine protease DUBs": {"tested_on": "cysteine protease DUBs", "test": "Reaction between Ubiquitin75-propargylamide and DUBs, in vitro labeling", "type": "binding", "conditions": "including OTU-domain containing DUBs", "description": "as §1"}, "papain": {"molecular_target": "T2, papain (Carica papaya, UniProt P00784)", "T2 construct": "papain, a general cysteine protease obtained from Papaya Latex; from tissue; host or cells: papaya latex", "T2 sequence (P00784 134-345)": "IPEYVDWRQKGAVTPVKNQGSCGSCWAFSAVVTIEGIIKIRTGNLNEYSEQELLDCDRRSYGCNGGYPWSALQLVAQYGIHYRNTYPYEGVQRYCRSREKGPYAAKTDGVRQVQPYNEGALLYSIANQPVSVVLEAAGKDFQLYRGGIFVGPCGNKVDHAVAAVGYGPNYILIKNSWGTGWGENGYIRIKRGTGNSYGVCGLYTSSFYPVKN", "test": "In vitro labeling reaction of cysteine proteases: papain", "type": "binding", "description": "as §1"}, "SENP-1": {"tested_on": "SENP-1", "test": "In vitro labeling reaction of cysteine proteases: SENP-1", "type": "binding", "description": "as §1"}, "ubiquitin ligase E1": {"molecular_target": "T3, ubiquitin ligase E1 (Homo sapiens, UniProt P22314)", "T3 sequence (P22314 1-1058)": "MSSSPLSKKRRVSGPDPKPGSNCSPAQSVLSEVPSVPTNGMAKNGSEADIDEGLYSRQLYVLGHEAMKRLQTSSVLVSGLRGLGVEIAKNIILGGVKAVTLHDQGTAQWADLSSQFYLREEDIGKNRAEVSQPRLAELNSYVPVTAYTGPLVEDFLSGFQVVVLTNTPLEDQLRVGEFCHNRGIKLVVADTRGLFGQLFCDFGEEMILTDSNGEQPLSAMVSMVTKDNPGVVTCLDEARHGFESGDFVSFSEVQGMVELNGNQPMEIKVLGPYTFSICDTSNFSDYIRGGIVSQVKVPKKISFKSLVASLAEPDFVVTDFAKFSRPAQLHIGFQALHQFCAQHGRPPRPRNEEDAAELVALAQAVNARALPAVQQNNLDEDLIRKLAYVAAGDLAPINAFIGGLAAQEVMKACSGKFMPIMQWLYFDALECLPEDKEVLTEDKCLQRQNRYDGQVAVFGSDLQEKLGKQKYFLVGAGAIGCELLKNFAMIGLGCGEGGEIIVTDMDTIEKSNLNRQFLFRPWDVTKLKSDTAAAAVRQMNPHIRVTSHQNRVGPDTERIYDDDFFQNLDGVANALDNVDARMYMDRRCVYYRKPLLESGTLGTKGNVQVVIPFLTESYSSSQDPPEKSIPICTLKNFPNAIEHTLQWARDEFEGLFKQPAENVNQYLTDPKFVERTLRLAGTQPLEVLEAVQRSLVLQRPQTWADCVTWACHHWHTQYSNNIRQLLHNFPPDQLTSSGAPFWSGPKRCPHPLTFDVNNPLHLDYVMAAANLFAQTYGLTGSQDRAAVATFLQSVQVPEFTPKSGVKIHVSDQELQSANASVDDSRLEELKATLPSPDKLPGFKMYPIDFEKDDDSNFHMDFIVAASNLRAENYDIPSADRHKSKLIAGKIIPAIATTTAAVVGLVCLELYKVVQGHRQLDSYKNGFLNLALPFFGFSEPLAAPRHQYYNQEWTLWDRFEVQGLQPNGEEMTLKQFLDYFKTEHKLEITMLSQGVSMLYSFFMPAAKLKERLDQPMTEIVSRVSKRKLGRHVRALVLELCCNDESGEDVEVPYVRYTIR", "test": "In vitro labeling reaction: ubiquitin ligase E1", "type": "binding", "description": "as §1"}, "UCH-L3 [4]": {"molecular_target": "T1, UCH-L3", "test": "Acid cleavage of the complex between Ubiquitin75-propargylamide and the DUBs", "conditions": "incubation with various acids", "description": "To a solution of Ubiquitin75-propargylamide-UCH-L3 complex in PBS (3 mg/mL; 10 μL) was added a 3-fold concentrated solution of the tested acid. The reactions were incubated overnight and analyzed by SDS-PAGE chromatography and/or mass spectrometry."}, "UCH-L3 [5]": {"molecular_target": "T1, UCH-L3", "test": "Thioradical-mediated cleavage of Ub-Prg-UCH-L3 complex", "conditions": "ethane thiol 50 mM, VA-044 10 mM, three hours", "description": "The reaction was incubated for 30 minutes at 37° C. and was buffer exchanged into water by PD-10 column (GE Healthcare) and lyophilized overnight. The resulting white powder was dissolved in PBS (100 μL) and to 90 μL of this solution 10 μL of ethanethiol was added (143 μmole) and VA-044 to a final concentration of 10 mM. The reaction was shaken at 37° C. for three hours prior to LC-MS analysis.\nTo a solution of Ub-prg-UCH-L3 complex in PBS (0.5 mg/mL; 80 μL) various amounts of thiol were added to the final concentrations indicated. Radical initiator VA-044 was added at the concentrations indicated and the reaction was shaken at 37° C. for 3 hours after which the reactions were analysed by non-reducing SDS-PAGE."}}, "note": "Primed or numbered codes have the meaning given here. PEG4′ = not defined here; PRG = propargyl", "data": [{"substance": "Cy5-PEG4-FQQQTG-PRG ({Cy5-PEG4′}-FQQQTG-{PRG}) [SUMO2,3, truncated fluorescent C-terminal propargylated SUMO peptide, C-termini of SUMO-2 and SUMO-3]", "values": [{"measurement": "selective capturing / binding of SENPs", "setting": "[1]", "value": "selective binding"}, {"measurement": "binding to SENPs denatured prior to addition of the peptides", "setting": "[1]", "value": "completely abolishes binding"}]}, {"substance": "Cy5-PEG4-YQEQTG-PRG ({Cy5-PEG4′}-YQEQTG-{PRG}) [SUMO1, truncated fluorescent C-terminal propargylated SUMO peptide, C-terminus of SUMO-1]", "values": [{"measurement": "selective capturing / binding of SENPs", "setting": "[1]", "value": "selective binding"}, {"measurement": "binding to SENPs denatured prior to addition of the peptides", "setting": "[1]", "value": "completely abolishes binding"}]}, {"substance": "TMR-Ub-Prg: N-terminally tetramethylrhodamine (TMR) labeled analogue of Ub-Prg", "values": [{"measurement": "labeling of active DUBs in lysates at endogenous levels", "setting": "DUBs in cell lysates", "value": "clear labeling results"}, {"measurement": "reaction with DUB mutants, active site cysteine mutated to serine", "setting": "[2]", "value": "failed to react"}]}, {"substance": "Ubiquitin75-propargylamide [Ub-Prg]", "values": [{"measurement": "bond formation with UCH-L3, stable to denaturing LC-MS and denaturing SDS-PAGE", "setting": "UCH-L3 [3]; 1.2 molar equivalents, 37 °C, 30 minutes", "value": "forms a bond with UCH-L3"}, {"measurement": "reactivity with UCH-L3 after pre-treatment with iodoacetamide", "setting": "UCH-L3 [3]; UCH-L3 pre-treated with general alkylating agent iodoacetamide", "value": "abolished all reactivity"}, {"measurement": "complex formation with radical scavenger", "setting": "UCH-L3 [3]; presence of excess radical scavenger", "value": "complex formation"}, {"measurement": "reaction in vitro with cysteine protease DUBs", "setting": "cysteine protease DUBs", "value": "react in vitro with all cysteine protease DUBs tested"}, {"measurement": "reaction in vitro with cysteine protease DUBs", "setting": "cysteine protease DUBs; listed as Ubiquitin-propargyl", "value": "reacts with all classes of cysteine deubiquitinating enzymes"}, {"measurement": "reactivity towards papain", "setting": "papain", "value": "unreactive"}, {"measurement": "reactivity towards SENP-1", "setting": "SENP-1", "value": "unreactive"}, {"measurement": "reactivity towards ubiquitin ligase E1", "setting": "ubiquitin ligase E1", "value": "no reactivity"}, {"measurement": "reaction with DUB mutants, active site cysteine mutated to serine", "setting": "[2]", "value": "abolished binding"}, {"measurement": "acid lability of complex with UCH-L3", "setting": "UCH-L3 [4]", "value": "cleavage of the complex"}, {"measurement": "thioradical treatment of purified complex with UCH-L3", "setting": "UCH-L3 [5]", "value": "cleavage was observed"}]}]}
